Data reported in US20160235724A1, “TETRAHYDROPYRIDOETHERS FOR THE TREATMENT OF STARGARDT'S DISEASE” (KATAIRO GMBH, priority 2013, published 2016).
Where “and” joins values, the source holds several entries; their conditions need not be identical. Identical values can stand only once.

Assays:
RPE cells = conditions: known from the literature; cited from earlier work
[1] = tested on: lipofuscin in RPE cells of ABCA4−/− mice; assay: Quantification and ultrastructural (TEM) analysis of lipofuscin in RPE after single intravitreal injection in ABCA4−/− mice (Stargardt's disease model); assay type: in vivo, mouse; conditions: single intravitreal injection 0.32 mg
Description: Pigmented ABCA4^−/− mice (129S4/SvJae-ABCA4^tm1Ght) were provided by Gabriel Travis (David Geffen School of Medicine, University of California, Los Angeles, Calif.) and bred in the Biomedical Sciences division, University of Oxford. All experiments were conducted in female mice. The animals were kept in a 12 hour light (<100 lux)/dark cycle, with food and water available ad libitum. All animal breeding and experimental procedures were performed under approval of local and national ethical and legal authorities, and were conducted in compliance with the ARVO statement for the Use of Animals in Ophthalmic and Vision Research.
(§1) Two μl PBS containing a total amount of 0.32 mg Soraprazan in suspension were injected into the vitreous of three 12 months old ABCA4^−/− mice.
(§2) The eyes were enucleated after four weeks. Two untreated aged matched ABCA4^−/− mice served as controls. After enucleation, the eyes were cleaned of orbital tissue and, after removal of the cornea, were fixed overnight at 4° C. in 2% glutaraldehyde in 0.1 M cacodylate buffer (pH 7.4) containing 100 mM sucrose. After washing with cacodylate buffer, areas of interest in flat mount preparations were excised and post-fixed with 1% osmium tetroxide in 0.1 M cacodylate buffer at room temperature for 1 h. In some parts of the eyes osmication was omitted which preserved the autofluorescence of lipofuscin. Dehydration was then started by a series of incubations in 30, 50, and 70% ethanol. The samples were stained with saturated uranyl acetate. Dehydration was continued by incubations in 70, 80, 95, 100% ethanol and propylene oxide. The samples were then embedded in Epon (SPI-Pon™812 Epoxy Embedding Kit, SPI supplies, West Chester, Pa.). For light and fluorescence microscopy, staining with osmium and uranylacetate was omitted.
Ultrathin Epon sections (70 nm) from WT control eyes and ABCA4^−/− eyes were post-stained with lead citrate and investigated under a transmission electron microscope (TEM; Model 902 A, Carl Zeiss, Oberkochen, Germany). For statistical analysis, the areas occupied by lipofuscin granules were quantified in 8-10 micrographs from each group. […] For lipofuscin quantification, image analysis software (iTEM, Olympus Soft imaging Solutions, Munster, Germany) was used. For each image, the total area of RPE cytoplasm was determined. […] The area fraction of lipofuscin/melanolipofuscin is expressed as area in μm^2 occupied by lipofuscin per 100 μm^2 RPE cytoplasm.
Statistical significance for the ultrastructural evaluation of lipofuscin granules was determined by using Dunnett's test and the JMP9 statistical program (SAS; Heidelberg, Germany). […]

[2] = tested on: lipofuscin in RPE cells of ABCA4−/− mice; assay: Fluorescence microscopy of autofluorescent lipofuscin granules in RPE semithin sections of ABCA4−/− mice; assay type: in vivo, mouse; conditions: 12-month-old ABCA4−/− mice, 4 weeks after single intravitreal injection of 0.32 mg, qualitative
Description: as §1
as §2, with “The samples were stained with saturated uranyl acetate. Dehydration was continued by incubations in 70, 80, 95, 100% ethanol and propylene oxide. The samples were then embedded in Epon (SPI-Pon™812 Epoxy Embedding Kit, SPI supplies, West Chester, Pa.).” left out
Autofluorescent lipofuscin and melanolipofuscin granules were photographed in semi thin sections using a fluorescence microscope (Zeiss Axioplan2 imaging, excitation 370/36 nm, emission 575/15 nm, 40× objective) connected to a personal computer equipped with a CDD camera. Since the granules could not clearly be separated from each other and lipofuscin cannot be differentiated from melanolipofuscin, the quantification of lipofuscin granules was performed using electron microscopy.

Cynomolgus monkey = assay: 52-week oral administration in the Cynomolgus monkey, conventional histopathology of the eye; assay type: in vivo
Description: Soraprazan was administrated in oral application of 6, 12 and 24 mg/kg/day for 52 weeks in the Cynomolgus monkey.
Some monkeys from the control and the high-dose group were subjected to a recovery period of 3 months.

Q: With `CO[C@H]1c2ccn3c(C)c(C)nc3c2N[C@@H](c2ccccc2)[C@@H]1O` [Example 1B, (7S,8S,9S)-2,3-Dimethyl-8-hydroxy-7-methoxy-9-phenyl-7,8,9,10-tetrahydro-imidazo [1,2-h][1,7] naphthyridine] as the compound, how does the melting point read?
A: 161 to 162 °C

Q: Which melting point does the source give for `CO[C@H]1c2ccn3c(C)c(C)nc3c2N[C@H](c2ccccc2)[C@H]1O` [Example 2A, (7S,8R,9R)-2,3-Dimethyl-8-hydroxy-7-methoxy-9-phenyl-7,8,9,10-tetrahydro-imidazo [1,2-h][1,7]naphthyridine] here?
A: 108 to 110 °C

Q: Which melting point does the source give for `CO[C@@H]1c2ccn3c(C)c(C)nc3c2N[C@@H](c2ccccc2)[C@@H]1O` [Example 2B, (7R,8S,9S)-2,3-Dimethyl-8-hydroxy-7-methoxy-9-phenyl-7,8,9,10-tetrahydro-imidazo[1,2-h][1,7]naphthyridine] here?
A: 171 to 172 °C

Q: For `CCO[C@@H]1c2ccn3c(C)c(C)nc3c2N[C@H](c2ccccc2)[C@H]1O` [Example 3, (7R,8R,9R)-2,3-Dimethyl-7-ethoxy-8-hydroxy-9-phenyl-7,8,9,10-tetrahydro-imidazo [1,2-h][1,7]naphthyridine], which melting point is on record?
A: 188 to 190 °C

Q: For `CCO[C@H]1c2ccn3c(C)c(C)nc3c2N[C@H](c2ccccc2)[C@H]1O` [Example 4, (7S,8R,9R)-2,3-Dimethyl-7-ethoxy-8-hydroxy-9-phenyl-7,8,9,10-tetrahydro-imidazo [1,2-h][1,7]naphthyridine], which melting point is on record?
A: 135 to 137 °C

Q: With `Cc1nc2c3c(ccn2c1C)[C@H](OC(C)C)[C@H](O)[C@@H](c1ccccc1)N3` [Example 7, (7S,8R,9R)-2,3-Dimethyl-8-hydroxy-9-phenyl-7-(2-propoxy)-7,8,9,10-tetrahydro-imidazo [1,2-h][1,7]naphthyridine] as the compound, how does the melting point read?
A: 168 to 169 °C

Q: For `CO[C@@H]1[C@@H](c2ccccc2)Nc2c(ccn3c(C)c(C)nc23)[C@H]1OC` [Example 8, (7R,8R,9R)-2,3-Dimethyl-7,8-dimethoxy-9-phenyl-7,8,9,10-tetrahydro-imidazo[1,2-h][1,7]naphthyridine], which melting point is on record?
A: 155 to 156 °C

Q: With `COCCO[C@@H]1c2ccn3c(C)c(C)nc3c2N[C@H](c2ccccc2)[C@H]1O` [Soraprazan, (7R,8R,9R)-2,3-Dimethyl-8-hydroxy-7-(2-methoxyethoxy)-9-phenyl-7,8,9,10-tetrahydro-imidazo [1,2-h][1,7]naphthyridine] as the compound, how does the “removal of "natural" lipofuscin from RPE cells” value (RPE cells) read?
A: remove such lipofuscin from RPE cells

Q: What about the “percent area occupied by lipofuscin in RPE cell cytoplasm (median)” value ([1]; 12-month-old ABCA4−/− mice, eyes enucleated after four weeks, untreated median 12.92%, p<0.0001, Dunnett's test) of the same compound?
A: 6.42%

Q: And the “electron-opaque lipofuscin granules in RPE (TEM) compared to controls” value ([1]; 12-month-old ABCA4−/− mice, four weeks)?
A: significantly reduced in number

Q: What about the “appearance of retinas of treated animals” value ([1]; ABCA4−/− mice) of the same compound?
A: removing lipofuscin. Retinas of treated animals made a healthy

Q: And the “lipofuscin content of RPE cells after treatment (study overview result)” value ([1]; ABCA4−/− mice, 44 retinal areas, p < 0.0001)?
A: significantly reduced and 1. Lipofuscin is removed from ABCA4^−/− mouse RPE cells after

Q: And the “lipofuscin in RPE under fluorescent light compared to untreated mice” value [2]?
A: lipofuscin was reduced

Q: What about the conventional histopathology findings (Cynomolgus monkey; oral 6 mg/kg/day for 52 weeks) of the same compound?
A: no alterations

Q: What about the conventional histopathology findings (Cynomolgus monkey; oral 12 mg/kg/day for 52 weeks) of the same compound?
A: no alterations

Q: And the “monkeys showing migration of individual macrophages beneath the RPE and/or into the subretinal space” value (Cynomolgus monkey; oral 24 mg/kg/day for 52 weeks)?
A: Three out of 12

Q: And the “photoreceptors facing the depigmented RPE” value (Cynomolgus monkey; oral 24 mg/kg/day for 52 weeks)?
A: stayed healthy

Q: And the “monkeys with depigmentation of RPE cells” value (Cynomolgus monkey; oral 24 mg/kg/day for 52 weeks, among the 3 monkeys with macrophage migration)?
A: Two of these 3
